# Laboratory results published in ChEMBL document CHEMBL1201862, “PubChem BioAssay data set” (2004).
# The source made the active and inactive calls.
# Assays:
# P388/ADR = experiment: cells; format: functional; details: Mus musculus
# SN12K1 = experiment: cells; format: functional; details: Homo sapiens
# P388 = experiment: cells; format: functional; details: Mus musculus
# Nonstructural protein 1 = Nonstructural protein 1 (Influenza A virus, UniProt Q194T2); format: functional, Influenza A virus (A/California/07/2009(H1N1))
# Caspase-3 = molecular target: T1, Caspase-3 (Homo sapiens, UniProt P42574); format: functional;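 also: Dose-response selectivity test against caspase-3 for candidate inhibitors of sentrin-specific proteases (SENPs)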
# T1 sequence (P42574 whole entry): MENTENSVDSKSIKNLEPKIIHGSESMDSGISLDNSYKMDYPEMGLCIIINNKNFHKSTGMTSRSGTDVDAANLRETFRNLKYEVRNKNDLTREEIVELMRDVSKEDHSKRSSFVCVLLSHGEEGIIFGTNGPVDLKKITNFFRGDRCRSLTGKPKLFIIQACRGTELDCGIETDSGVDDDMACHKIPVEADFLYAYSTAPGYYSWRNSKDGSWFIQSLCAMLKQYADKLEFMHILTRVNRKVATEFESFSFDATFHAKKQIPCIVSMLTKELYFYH
# [1] = molecular target: T2, Sentrin-specific protease 7 (Homo sapiens, UniProt Q9BQF6); format: functional;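 also: Luminescence-based dose-response confirmation of ultra-high-throughput screening hits, measuring inhibition of SENP7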
# T2 sequence (Q9BQF6 whole entry): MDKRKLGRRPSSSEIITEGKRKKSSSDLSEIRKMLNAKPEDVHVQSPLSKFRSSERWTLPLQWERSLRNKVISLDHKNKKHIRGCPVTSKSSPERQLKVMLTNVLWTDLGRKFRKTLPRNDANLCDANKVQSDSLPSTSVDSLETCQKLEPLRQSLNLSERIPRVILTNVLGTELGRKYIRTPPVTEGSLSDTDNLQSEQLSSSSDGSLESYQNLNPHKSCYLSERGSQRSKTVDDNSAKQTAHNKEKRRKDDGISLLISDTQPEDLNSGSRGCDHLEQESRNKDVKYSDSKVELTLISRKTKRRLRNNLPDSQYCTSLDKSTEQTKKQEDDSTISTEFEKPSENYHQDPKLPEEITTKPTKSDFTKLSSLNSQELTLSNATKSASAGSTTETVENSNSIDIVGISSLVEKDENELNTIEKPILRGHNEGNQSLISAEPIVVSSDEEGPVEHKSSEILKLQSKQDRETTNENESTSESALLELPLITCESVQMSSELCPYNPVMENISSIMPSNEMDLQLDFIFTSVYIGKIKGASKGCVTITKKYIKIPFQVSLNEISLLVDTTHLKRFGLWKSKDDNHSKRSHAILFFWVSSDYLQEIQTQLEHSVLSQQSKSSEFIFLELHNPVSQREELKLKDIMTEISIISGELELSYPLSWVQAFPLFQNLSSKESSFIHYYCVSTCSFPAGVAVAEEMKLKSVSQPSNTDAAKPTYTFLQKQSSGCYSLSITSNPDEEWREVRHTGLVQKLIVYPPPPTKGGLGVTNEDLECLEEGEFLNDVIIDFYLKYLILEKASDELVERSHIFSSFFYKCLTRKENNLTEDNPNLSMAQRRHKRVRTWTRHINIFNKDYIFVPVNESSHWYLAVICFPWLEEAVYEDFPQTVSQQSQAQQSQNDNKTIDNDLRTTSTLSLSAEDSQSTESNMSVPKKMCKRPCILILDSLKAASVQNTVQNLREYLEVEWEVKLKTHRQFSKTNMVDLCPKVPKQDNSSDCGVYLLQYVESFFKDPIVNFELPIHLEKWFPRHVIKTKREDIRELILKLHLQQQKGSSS
# [2] = molecular target: T3, Sentrin-specific protease 6 (Homo sapiens, UniProt Q9GZR1); format: functional;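 also: Luminescence-based dose-response confirmatory assay of SENP6 inhibition, following up an ultra-high-throughput screen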
# T3 sequence (Q9GZR1 whole entry): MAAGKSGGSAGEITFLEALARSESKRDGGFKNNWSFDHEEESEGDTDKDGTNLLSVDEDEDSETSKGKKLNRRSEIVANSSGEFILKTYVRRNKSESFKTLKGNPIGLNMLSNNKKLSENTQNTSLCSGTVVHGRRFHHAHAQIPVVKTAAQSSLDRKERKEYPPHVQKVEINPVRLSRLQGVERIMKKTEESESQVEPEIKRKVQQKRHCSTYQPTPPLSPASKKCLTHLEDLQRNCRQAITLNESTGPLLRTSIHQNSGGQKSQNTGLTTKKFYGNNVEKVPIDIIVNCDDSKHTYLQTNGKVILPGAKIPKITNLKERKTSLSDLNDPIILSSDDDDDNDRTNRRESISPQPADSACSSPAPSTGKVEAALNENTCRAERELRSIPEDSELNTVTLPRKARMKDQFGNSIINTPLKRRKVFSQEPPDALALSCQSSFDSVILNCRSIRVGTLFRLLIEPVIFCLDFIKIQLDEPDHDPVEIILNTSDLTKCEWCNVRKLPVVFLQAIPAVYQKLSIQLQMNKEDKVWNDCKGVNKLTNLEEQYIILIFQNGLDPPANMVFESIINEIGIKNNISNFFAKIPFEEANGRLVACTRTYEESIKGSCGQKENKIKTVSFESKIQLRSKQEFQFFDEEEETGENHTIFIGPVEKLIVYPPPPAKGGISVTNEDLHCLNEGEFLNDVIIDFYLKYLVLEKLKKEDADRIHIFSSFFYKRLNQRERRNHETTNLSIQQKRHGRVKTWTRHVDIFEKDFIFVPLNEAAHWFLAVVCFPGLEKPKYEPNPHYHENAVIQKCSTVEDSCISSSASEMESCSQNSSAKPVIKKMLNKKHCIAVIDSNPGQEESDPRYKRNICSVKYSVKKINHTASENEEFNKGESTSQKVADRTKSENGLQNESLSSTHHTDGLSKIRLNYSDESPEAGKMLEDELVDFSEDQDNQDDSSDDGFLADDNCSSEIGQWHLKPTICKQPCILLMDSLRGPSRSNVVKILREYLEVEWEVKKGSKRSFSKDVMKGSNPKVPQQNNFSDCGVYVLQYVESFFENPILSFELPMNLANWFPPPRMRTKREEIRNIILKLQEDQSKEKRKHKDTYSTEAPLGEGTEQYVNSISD
# [3] = molecular target: T4, Sentrin-specific protease 8 (Homo sapiens, UniProt Q96LD8); format: functional;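 also: luminescence read-out of SENP8 inhibition, dose-response confirmation following an ultra-high-throughput screen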
# T4 sequence (Q96LD8 whole entry): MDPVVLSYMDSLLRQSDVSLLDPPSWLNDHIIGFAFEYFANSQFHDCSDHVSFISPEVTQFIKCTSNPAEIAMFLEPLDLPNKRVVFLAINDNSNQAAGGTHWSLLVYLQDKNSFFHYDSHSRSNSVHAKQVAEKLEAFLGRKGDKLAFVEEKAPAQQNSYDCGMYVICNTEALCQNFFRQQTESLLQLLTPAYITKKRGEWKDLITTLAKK
# [4] = molecular target: T5, Ubiquitin-conjugating enzyme E2 N (Homo sapiens, UniProt P61088); format: functional;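 also: Dose-response confirmation in a TR-FRET assay detecting UBC13-driven polyubiquitin chain formation, inhibition measured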
# T5 sequence (P61088 whole entry): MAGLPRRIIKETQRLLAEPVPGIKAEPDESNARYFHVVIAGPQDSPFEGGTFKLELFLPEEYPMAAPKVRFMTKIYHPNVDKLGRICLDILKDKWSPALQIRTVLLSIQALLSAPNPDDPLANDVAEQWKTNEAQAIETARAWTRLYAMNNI
# Cytochrome P450 2C19 = Cytochrome P450 2C19 (Homo sapiens, UniProt P33261); experiment: Cytochrome panel assay with activity outcomes. Panel member name: p450-cyp2c19 Compounds with AC50 equal or less than 10 uM are considered active; format: functional; details: read-out: AC50
# Vero [5] = experiment: cells; format: functional, cell-based; details: Chlorocebus sabaeus
# Vero [6] = experiment: cells; format: functional; details: Chlorocebus sabaeus
# Cytochrome P450 2D6 = Cytochrome P450 2D6 (Homo sapiens, UniProt P10635);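 also: CYP2D6 member of a cytochrome P450 panel assay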
# Coagulation factor XII = molecular target: T6, Coagulation factor XII (Homo sapiens, UniProt P00748); format: functional;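 also: activated factor XIIa alpha cleaving a fluorogenic AMC peptide substrate; inhibitor potency from loss of enzyme activity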
# T6 sequence (P00748 whole entry): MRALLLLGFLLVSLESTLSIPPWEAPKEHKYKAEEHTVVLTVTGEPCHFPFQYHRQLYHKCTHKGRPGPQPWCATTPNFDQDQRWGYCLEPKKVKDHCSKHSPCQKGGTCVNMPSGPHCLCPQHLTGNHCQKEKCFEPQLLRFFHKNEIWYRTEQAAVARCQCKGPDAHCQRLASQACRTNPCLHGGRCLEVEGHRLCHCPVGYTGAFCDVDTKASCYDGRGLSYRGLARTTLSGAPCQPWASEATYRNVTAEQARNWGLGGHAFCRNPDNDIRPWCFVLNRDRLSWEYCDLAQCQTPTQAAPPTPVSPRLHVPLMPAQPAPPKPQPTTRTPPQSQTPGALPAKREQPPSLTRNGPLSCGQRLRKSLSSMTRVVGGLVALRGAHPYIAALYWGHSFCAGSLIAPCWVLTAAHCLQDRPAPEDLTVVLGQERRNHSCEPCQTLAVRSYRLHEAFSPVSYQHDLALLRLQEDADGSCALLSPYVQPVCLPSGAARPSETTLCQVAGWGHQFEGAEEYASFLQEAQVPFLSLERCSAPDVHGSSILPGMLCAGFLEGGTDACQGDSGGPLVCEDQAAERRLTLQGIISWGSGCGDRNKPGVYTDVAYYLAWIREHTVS
# [7] = molecular target: FAD-linked sulfhydryl oxidase ALR (Homo sapiens, UniProt P55789); experiment: inhibitors of human ALR sulfhydryl oxidase, dose response, biochemical, H2O2 detection, luminescence, cherry-pick (AID 493248)
# [8] = Luminescence Cell-Based Dose Retest to Confirm Inhibitors of Cancer Stem Cells. [Related pubchem assays (depositor defined):AID2717, AID2721]; format: functional; details: Homo sapiens
# [9] = molecular target: Heat shock protein HSP 90-alpha (Homo sapiens, UniProt P07900); format: functional, organism-based
# [10] = microbe, parasite or virus in culture; format: functional; details: Mycobacterium tuberculosis
# INS1 = experiment: beta cell apoptosis inhibitors, cytokine rescue, dose response, luminescence, retest (AID 449756); format: functional, cell-based; details: Rattus norvegicus;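 also: cell death triggered by IL-1 beta plus TNF-alpha plus IFN-gamma mixture; protective hits raise ATP signal compared with cytokine alone wells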
# [11] = Luminescence Cell-Based Dose Response HTS to Identify Activators of Luciferase Translation or Activity in H4 […] Cells. [Related pubchem assays: 1829 (Project Summary), 1814 (Primary HTS)]; format: functional
# BJ [12] = experiment: cytotoxicity toward BJ-TERT fibroblasts, dose response, cell-based, RAS-independent, luminescence (AID 1933); format: functional; details: Homo sapiens
# H4 = experiment: Luminescence Cell-Based Dose Response HTS to Identify Activators of 5'UTR Stem-Loop Driven Prion Protein mRNA Translation in H4 Neuroglioblastoma Cells. [Related pubchem assays: 1829 (Project Summary), 1814 (Primary HTS)]; format: functional; details: Homo sapiens
# BJ [13] = experiment: cells; format: functional, cell-based; details: Homo sapiens
# BJ [14] = experiment: cytotoxicity toward BJ-TERT-LT-ST fibroblasts, dose response, cell-based, RAS-independent, luminescence (AID 1935); format: functional; details: Homo sapiens;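 also: BJ fibroblasts immortalized with TERT plus LT and ST oncogenes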
# [15] = cytotoxicity toward DRD oncogenic fibroblasts, dose response, cell-based, non-viral oncogenic, luminescence (AID 1934); format: functional; details: Homo sapiens
# Chain of Nonstructural protein 1 (Q194T2 whole entry): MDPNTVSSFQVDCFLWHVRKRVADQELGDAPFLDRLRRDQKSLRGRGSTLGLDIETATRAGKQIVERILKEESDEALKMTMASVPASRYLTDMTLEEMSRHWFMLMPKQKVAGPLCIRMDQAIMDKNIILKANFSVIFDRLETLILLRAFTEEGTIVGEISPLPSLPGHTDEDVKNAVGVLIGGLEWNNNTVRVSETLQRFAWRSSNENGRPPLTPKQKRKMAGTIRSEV
# Chain of FAD-linked sulfhydryl oxidase ALR (P55789 whole entry): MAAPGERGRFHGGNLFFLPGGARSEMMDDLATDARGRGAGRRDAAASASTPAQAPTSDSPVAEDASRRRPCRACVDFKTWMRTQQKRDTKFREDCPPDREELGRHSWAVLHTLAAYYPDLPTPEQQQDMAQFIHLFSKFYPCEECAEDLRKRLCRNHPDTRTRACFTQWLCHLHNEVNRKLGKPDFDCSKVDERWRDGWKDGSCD
# Chain of Cytochrome P450 2C19 (P33261 whole entry): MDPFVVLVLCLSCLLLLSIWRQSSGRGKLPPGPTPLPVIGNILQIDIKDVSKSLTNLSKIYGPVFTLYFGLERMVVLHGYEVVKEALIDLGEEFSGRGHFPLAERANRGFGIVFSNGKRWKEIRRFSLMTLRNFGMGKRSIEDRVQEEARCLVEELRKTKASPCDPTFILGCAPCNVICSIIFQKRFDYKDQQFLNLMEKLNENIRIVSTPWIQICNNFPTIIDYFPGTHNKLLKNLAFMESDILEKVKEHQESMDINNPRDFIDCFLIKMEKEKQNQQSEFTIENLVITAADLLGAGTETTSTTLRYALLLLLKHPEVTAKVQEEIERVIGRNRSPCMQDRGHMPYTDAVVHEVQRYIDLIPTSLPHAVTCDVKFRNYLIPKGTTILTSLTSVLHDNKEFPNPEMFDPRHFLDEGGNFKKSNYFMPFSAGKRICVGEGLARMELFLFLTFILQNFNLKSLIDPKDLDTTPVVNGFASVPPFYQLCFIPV
# Chain of Cytochrome P450 2D6 (P10635 whole entry): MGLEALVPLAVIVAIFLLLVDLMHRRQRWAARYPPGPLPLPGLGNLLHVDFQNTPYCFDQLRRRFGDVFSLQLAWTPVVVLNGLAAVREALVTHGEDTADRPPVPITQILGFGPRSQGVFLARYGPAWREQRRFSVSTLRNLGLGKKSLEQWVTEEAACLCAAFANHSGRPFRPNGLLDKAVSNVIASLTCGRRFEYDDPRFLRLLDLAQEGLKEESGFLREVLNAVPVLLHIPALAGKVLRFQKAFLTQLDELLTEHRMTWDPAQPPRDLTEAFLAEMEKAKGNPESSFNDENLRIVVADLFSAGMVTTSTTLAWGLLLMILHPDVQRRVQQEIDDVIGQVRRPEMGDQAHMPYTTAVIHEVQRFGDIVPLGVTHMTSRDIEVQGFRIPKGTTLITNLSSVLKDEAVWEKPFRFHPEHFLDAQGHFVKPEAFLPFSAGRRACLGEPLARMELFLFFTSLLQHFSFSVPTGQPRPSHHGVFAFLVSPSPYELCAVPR
compound,measurement,setting,value
C=C1C(C)C2C(Cc3ccccc3)NC(=O)C23C(OC(C)=O)/C=C/C(C)(O)CC(C)C/C=C/C3C1O (stereo unspecified),GI50,P388/ADR,2.58 µM (inactive)
same,GI50,SN12K1,0.0294 µM (active)
same,GI50,P388,0.608 µM (active)
COc1ccc(-c2nc3ccc([N+](=O)[O-])cc3c(=O)[nH]2)cc1,GI50,P388/ADR,> 100 µM (inactive)
same,GI50,SN12K1,26 µM (inactive)
same,GI50,P388,> 100 µM (inactive)
COc1ccc(C2C3=C(CC(C)(C)CC3=O)Oc3ncn(Cc4ccco4)c(=N)c32)cc1 (stereo unspecified),IC50,Nonstructural protein 1,> 100 µM (active)
C/C(=N\OC(=O)c1ccc(Cl)cc1)c1nccs1,IC50,Caspase-3,15.1 µM (active)
same,IC50,[1],2.63 µM (active)
same,IC50,[2],11.7 µM (active)
same,IC50,[3],19.2 µM (active)
O=C(Nc1cccc(Cl)c1)Nc1ccccc1C(=O)NCc1ccco1,IC50,Caspase-3,21.4 µM (active)
same,IC50,[1],4.05 µM (active)
same,IC50,[2],4.44 µM (active)
same,IC50,[3],> 100 µM (inactive)
O=C(/C=C/c1ccccc1)n1cnnc1SC/C=C/c1ccccc1,IC50,Caspase-3,37.3 µM (active)
same,IC50,[1],8.8 µM (active)
same,IC50,[2],15.2 µM (active)
same,IC50,[3],25.6 µM (active)
CCOc1ccc(C(C(=O)NCC2CCCO2)N(C(=O)c2snc(C(N)=O)c2N)c2ccc3c(c2)OCCO3)cc1 (stereo unspecified),IC50,[4],> 20 µM (inactive)
Cc1sc(N/N=C/c2cccnc2)nc1-c1ccccc1,AC50,Cytochrome P450 2C19,0.501 µM (inconclusive)
same,IC50,Vero [5],> 25 µM (active)
same,CC50,Vero [6],> 25 µM (active)
same,AC50,Cytochrome P450 2D6,0.794 µM (inconclusive)
O=C(NCCCN1CCCC1)c1ccc2c(Cl)c3c(nc2c1)CCCC3,IC50,Coagulation factor XII,> 50 µM (inconclusive)
same,AC50,[7],0.01 µM (active)
same,IC50,Vero [5],> 25 µM (active)
same,CC50,Vero [6],> 25 µM (active)
CCCCCc1cc(=O)oc2c(C(CCN(CC)CC)c3cc(OC)c(OC)c(OC)c3)c(OC)cc(OC)c12 (stereo unspecified),AC50,[8],7.71 µM (active)
same,IC50,[4],> 20 µM (inactive)
O=C1CC(N2CCCCCC2)C(=O)N1c1ccc2c(c1)OCO2 (stereo unspecified),AC50,[9],4.79 µM (active)
O=[N+]([O-])c1cccc(-c2cn3c([n+]2-c2ccccc2)SCC3)c1,IC50,Vero [5],5.3 µM (active)
Oc1ccc(C=NNC(=S)Nc2cccnc2)nc1,IC50,Nonstructural protein 1,0.992 µM (active)
CCn1c(C)nc2cc(C(=O)OC(C(F)(F)C(F)F)C(F)(F)C(F)F)ccc21,CC50,[10],> 40 µM (active)
same,IC50,Vero [5],24.4 µM (active)
same,CC50,Vero [6],> 25 µM (active)
Nc1nc(C2CC2)c(Sc2sc(N)nc2C2CC2)s1,AC50,[7],0.511 µM (active)
same,IC50,Vero [5],> 25 µM (active)
Cc1ccc2ccc3cccnc3c2n1,IC50,Nonstructural protein 1,14.5 µM (active)
same,AC50,INS1,0.865 µM (active)
CCOC(=O)c1ccc(NC(=O)c2[nH]cnc2C(=O)NC2CCN(C(=O)OC(C)(C)C)CC2)cc1,IC50,[4],> 20 µM (inactive)
CCOC(=O)Nc1ccc2nc(N3CCCCCC3)sc2c1,EC50,[11],0.153 µM (active)
same,EC50,BJ [12],10.3 µM (inconclusive)
same,EC50,H4,> 120 µM (not active)
same,EC50,BJ [13],111 µM (active)
same,EC50,BJ [14],55.5 µM (inconclusive)
same,EC50,[15],4.7 µM (inconclusive)
same,IC50,Caspase-3,31.1 µM (active)
same,IC50,[1],10.5 µM (active)
same,IC50,[2],33.1 µM (active)
same,IC50,[3],9.44 µM (active)
